Laboratory results as given in patent publication US12291501B2 (University of Florida Research Foundation, Inc., priority 2021, dated 2025).
Values joined by “and” are separate entries in the source; they are usually repeats but may differ in a detail not shown here. Equal values may be shown once.

Assays:
Assay type in all cases: cell-based
α9 nAChR = target: T1, α9 nAChR (Homo sapiens, UniProt Q9UGM1); assay: Two-electrode voltage-clamp, agonist concentration-response, α9 nAChR in Xenopus oocytes; details: for EC50 / α9 Imax: peak currents, ± standard error of fit; for α9 Imax: relative to ACh (Imax = 1)
T1 construct: expressed in transfected cells; host or cells: Xenopus laevis oocytes, injected with in vitro transcribed RNA
T1 sequence (Q9UGM1 26-479 limits assumed): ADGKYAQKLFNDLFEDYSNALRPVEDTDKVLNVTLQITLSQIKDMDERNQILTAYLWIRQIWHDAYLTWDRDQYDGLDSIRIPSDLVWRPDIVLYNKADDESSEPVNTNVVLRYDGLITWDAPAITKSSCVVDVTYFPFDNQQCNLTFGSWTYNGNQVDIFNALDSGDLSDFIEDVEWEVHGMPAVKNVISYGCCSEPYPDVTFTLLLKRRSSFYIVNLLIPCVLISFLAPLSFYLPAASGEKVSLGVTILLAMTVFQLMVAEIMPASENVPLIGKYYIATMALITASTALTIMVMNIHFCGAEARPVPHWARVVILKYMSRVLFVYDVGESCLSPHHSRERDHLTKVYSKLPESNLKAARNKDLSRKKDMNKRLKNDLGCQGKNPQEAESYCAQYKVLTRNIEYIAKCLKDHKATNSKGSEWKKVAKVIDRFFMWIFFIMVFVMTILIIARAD
Source text: (§1) Electrophysiology: Xenopus oocytes were microinjected with RNAs to produce functional nAChR which were characterized by two-electrode voltage-clamp measurements. FIGS. 5A-7D present concentration-response curves for the new compounds evaluated with α7, α9, and α9α10 receptors. Table 1 presents the values for Imax and EC50 with these receptors and Table 2 summarizes inhibition data for the compounds with heteromeric nAChR.
(§2) Molecular Biology: Plasmid DNAs encoding the human α7 and heteromeric nAChR were obtained from Jon Lindstrom (University of Pennsylvania, Philadelphia, PA). Mouse muscle subunit clones were obtained from Jim Boulter (Salk Institute, La Jolla CA) and Paul Gardner (Dartmouth, Hanover NH). The human resistance-to-cholinesterase 3 ([…]) clone was obtained from Millet Treinin (Hebrew University, Jerusalem, Israel) and RNA co-injected with α7 to improve the level and speed of receptor expression without affecting their pharmacological properties. Plasmid DNA encoding the human α10 nAChR was obtained from J. Michael McIntosh. Plasmid DNA encoding the human α9 nAChR and the human receptor-associated protein of the synapse (RAPSYN) with codon optimization for expression in Xenopus laevis were obtained from Katrin Richter. RAPSYN RNA was co-injected with the α9 and α10 to improve expression (Richter et al., (2022) Front. Cell Neurosci. 16: 779081). After linearization and purification of the plasmid DNAs, RNAs were prepared using the mMessage mMachine in vitro RNA transcription kit (Ambion, Austin, TX). Frogs were maintained in the Animal Care Service facility of the University of Florida, and all procedures were approved by the University of Florida Institutional Animal Care and Use Committee (approval number 202002669). In brief, the animals were first anesthetized for 15-20 min in 1.5 l frog tank water containing 1 g of MS-222 buffered with sodium bicarbonate. Oocytes were obtained surgically from mature female Xenopus laevis (Nasco, Ft. Atkinson WI, USA) and treated with 1.4 mg/ml type 1 collagenase (Worthington Biochemicals, Freehold NJ, USA) for 2-4 h at rt in Ca2+-free Barth's solution (88 mM NaCl, 1 mM KCl, 2.38 mM NaHCO3, 0.82 mM MgSO4, 15 mM HEPES, and 12 mg/l tetracycline, pH 7.6) to remove the ovarian tissue and the follicular layers. Stage V oocytes were injected with 4-6 ng CHRNA7 RNA and 2-3 ng RIC3 RNA (2:1 ratio) in 50 nl water, or with 12 ng CHRNA9 RNA and 3 ng RAPSN RNA, or along with 12 ng CHRNA10 RNA in 50 nl water. Oocytes were maintained in Barth's solution containing 0.32 mM Ca(NO3)2 and 0.41 mM CaCl2, and recordings were conducted 2-20 days after injection.
(§3) Electrophysiology: Two-electrode voltage-clamp experiments were conducted using OpusXpress 6000A (Molecular Devices, Union City CA, USA). Both the voltage and current electrodes were filled with 3 M KCl. Oocytes were voltage-clamped at −60 mV at rt. The oocytes were perfused with Ringer's solution (115 mM NaCl, 2.5 mM KCl, 1.8 mM CaCl2, 10 mM HEPES, 1 μM atropine, pH 7.2) at 2 ml/min. […] Drug applications were 12 s in duration followed by 181 s washout periods.
(§4) The responses were calculated as both peak-current amplitudes and net charge. Data were collected at 50 Hz, filtered at 20 Hz, and analyzed by Clampfit (Molecular Devices) and Excel (Microsoft, Redmond, WA, United States). Data are expressed as means±SEM from at least five oocytes for each experiment and plotted with Kaleidagraph 4.5.2 (Abelbeck Software, Reading, PA, United States). Each episode of data acquisition was a total of 210 s and included an initial 30 s period used to define the baseline for the drug-evoked responses. After 30 s, drugs were applied, and the following 120 s were defined as the drug response period for analysis. […] The values for the curve fits were generated using the Levenberg-Marquardt algorithm to obtain the best Chi-Square fit to the Hill equation using the Kaleidagraph 4.5.2 plotting program. […]

α9α10 nAChR = target: T2, α9α10 nAChR (Homo sapiens, UniProt Q9GZZ6+Q9UGM1); assay: Two-electrode voltage-clamp, agonist concentration-response, α9α10 nAChR in Xenopus oocytes; details: for EC50 / α9α10 Imax: peak currents, ± standard error of fit; for α9α10 Imax: relative to ACh (Imax = 1)
T2 construct: expressed in transfected cells; host or cells: Xenopus laevis oocytes, injected with in vitro transcribed RNA
T2 sequence (Q9UGM1 26-479 limits assumed): as above
T2 sequence (Q9GZZ6 25-450): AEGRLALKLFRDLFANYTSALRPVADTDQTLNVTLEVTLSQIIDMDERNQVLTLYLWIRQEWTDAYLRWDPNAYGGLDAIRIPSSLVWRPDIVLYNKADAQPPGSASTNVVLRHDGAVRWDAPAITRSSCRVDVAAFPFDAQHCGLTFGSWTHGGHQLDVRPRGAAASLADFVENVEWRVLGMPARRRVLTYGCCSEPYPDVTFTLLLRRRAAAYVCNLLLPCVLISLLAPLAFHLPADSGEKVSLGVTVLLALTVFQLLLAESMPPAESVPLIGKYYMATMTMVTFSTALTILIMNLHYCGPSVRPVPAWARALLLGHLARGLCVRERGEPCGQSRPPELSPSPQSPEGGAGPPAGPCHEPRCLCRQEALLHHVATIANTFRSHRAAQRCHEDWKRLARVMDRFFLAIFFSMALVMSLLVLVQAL
Source text: as §1, §2, §3, §4

α7 nAChR [1] = target: T3, α7 nAChR (Homo sapiens, UniProt P36544); assay: Two-electrode voltage-clamp, agonist concentration-response, α7 nAChR in Xenopus oocytes; details: for EC50 / α7 Imax: net charge, ± standard error of fit; for α7 Imax: relative to ACh (Imax = 1)
T3 construct: expressed in transfected cells; host or cells: Xenopus laevis oocytes, injected with in vitro transcribed RNA
Source text: as §1
(§5) Molecular Biology: Plasmid DNAs encoding the human α7 and heteromeric nAChR were obtained from Jon Lindstrom (University of Pennsylvania, Philadelphia, PA). Mouse muscle subunit clones were obtained from Jim Boulter (Salk Institute, La Jolla CA) and Paul Gardner (Dartmouth, Hanover NH). […] Plasmid DNA encoding the human α10 nAChR was obtained from J. Michael McIntosh. Plasmid DNA encoding the human α9 nAChR and the human receptor-associated protein of the synapse (RAPSYN) with codon optimization for expression in Xenopus laevis were obtained from Katrin Richter. […] After linearization and purification of the plasmid DNAs, RNAs were prepared using the mMessage mMachine in vitro RNA transcription kit (Ambion, Austin, TX). […] Oocytes were maintained in Barth's solution containing 0.32 mM Ca(NO3)2 and 0.41 mM CaCl2, and recordings were conducted 2-20 days after injection.
(§6) Electrophysiology: Two-electrode voltage-clamp experiments were conducted using OpusXpress 6000A (Molecular Devices, Union City CA, USA). Both the voltage and current electrodes were filled with 3 M KCl. Oocytes were voltage-clamped at −60 mV at rt.
(§7) The responses were calculated as both peak-current amplitudes and net charge. Data were collected at 50 Hz, filtered at 20 Hz, and analyzed by Clampfit (Molecular Devices) and Excel (Microsoft, Redmond, WA, United States). Data are expressed as means±SEM from at least five oocytes for each experiment and plotted with Kaleidagraph 4.5.2 (Abelbeck Software, Reading, PA, United States). Each episode of data acquisition was a total of 210 s and included an initial 30 s period used to define the baseline for the drug-evoked responses. After 30 s, drugs were applied, and the following 120 s were defined as the drug response period for analysis. […] The values for the curve fits were generated using the Levenberg-Marquardt algorithm to obtain the best Chi-Square fit to the Hill equation using the Kaleidagraph 4.5.2 plotting program. The errors in the tables are the calculated standard errors of the fit parameters based on the goodness of fit.

α7 nAChR [2] = target: T3, α7 nAChR; assay: α7 responses to drugs co-applied with the PAM PNU-120596 (silent agonism); details: drug 30 μM + 10 μM PNU-120596; normalized to 30 μM ACh + 10 μM PNU-120596
Source text: as §5, §6, §7

α3β4 nAChR = target: T4, α3β4 nAChR (Homo sapiens, UniProt P30926+P32297); assay: Inhibition of control ACh responses by co-application, α3β4 nAChR in oocytes; details: 3 μM compound co-applied with ACh; fraction of control ACh response
T4 construct: expressed in transfected cells; host or cells: Xenopus laevis oocytes
T4 sequence (P32297 32-505): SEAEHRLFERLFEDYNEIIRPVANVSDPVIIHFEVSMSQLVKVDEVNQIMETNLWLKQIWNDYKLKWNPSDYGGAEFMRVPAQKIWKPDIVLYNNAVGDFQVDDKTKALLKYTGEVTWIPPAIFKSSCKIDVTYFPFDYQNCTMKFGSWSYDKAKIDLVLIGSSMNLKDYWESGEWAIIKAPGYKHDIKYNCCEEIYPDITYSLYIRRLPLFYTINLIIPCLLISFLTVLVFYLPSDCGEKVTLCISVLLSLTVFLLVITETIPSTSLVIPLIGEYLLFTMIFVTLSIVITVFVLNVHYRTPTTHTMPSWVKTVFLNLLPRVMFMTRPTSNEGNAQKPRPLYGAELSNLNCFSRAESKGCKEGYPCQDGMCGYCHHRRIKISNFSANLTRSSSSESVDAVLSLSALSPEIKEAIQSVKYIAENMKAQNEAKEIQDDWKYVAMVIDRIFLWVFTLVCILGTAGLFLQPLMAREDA
T4 sequence (P30926 22-498): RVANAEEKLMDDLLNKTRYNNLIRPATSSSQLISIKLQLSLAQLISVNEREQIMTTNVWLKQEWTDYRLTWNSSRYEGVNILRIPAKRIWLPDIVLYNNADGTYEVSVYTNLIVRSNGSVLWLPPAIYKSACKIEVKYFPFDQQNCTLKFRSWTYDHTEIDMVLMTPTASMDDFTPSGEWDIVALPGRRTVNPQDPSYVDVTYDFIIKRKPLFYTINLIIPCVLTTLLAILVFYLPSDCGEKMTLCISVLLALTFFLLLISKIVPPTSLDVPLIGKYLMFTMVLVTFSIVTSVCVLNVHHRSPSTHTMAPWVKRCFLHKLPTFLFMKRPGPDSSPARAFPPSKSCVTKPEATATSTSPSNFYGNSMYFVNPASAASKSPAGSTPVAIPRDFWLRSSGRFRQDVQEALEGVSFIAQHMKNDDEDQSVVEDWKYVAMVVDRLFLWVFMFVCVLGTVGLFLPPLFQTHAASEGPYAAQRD
Description: (§8) Initial profiling against heteromeric receptors: The test compounds for their ability to activate or inhibit other nAChR subtypes were evaluated. Agonist activity was evaluated by applying the compounds at 100 or 30 μM to human α4β2 and α3β4 as well as to mouse muscle α1β1εδ nAChR expressed in Xenopus oocytes. […] The inhibitory activity was generally low (Table 3).
as §2, §3, §7

α4β2 nAChR = target: T5, α4β2 nAChR (Homo sapiens, UniProt P17787+P43681); assay: Inhibition of control ACh responses by co-application, α4β2 nAChR in oocytes; details: 3 μM compound co-applied with ACh; fraction of control ACh response
T5 construct: expressed in transfected cells; host or cells: Xenopus laevis oocytes
T5 sequence (P43681 29-627 limits assumed): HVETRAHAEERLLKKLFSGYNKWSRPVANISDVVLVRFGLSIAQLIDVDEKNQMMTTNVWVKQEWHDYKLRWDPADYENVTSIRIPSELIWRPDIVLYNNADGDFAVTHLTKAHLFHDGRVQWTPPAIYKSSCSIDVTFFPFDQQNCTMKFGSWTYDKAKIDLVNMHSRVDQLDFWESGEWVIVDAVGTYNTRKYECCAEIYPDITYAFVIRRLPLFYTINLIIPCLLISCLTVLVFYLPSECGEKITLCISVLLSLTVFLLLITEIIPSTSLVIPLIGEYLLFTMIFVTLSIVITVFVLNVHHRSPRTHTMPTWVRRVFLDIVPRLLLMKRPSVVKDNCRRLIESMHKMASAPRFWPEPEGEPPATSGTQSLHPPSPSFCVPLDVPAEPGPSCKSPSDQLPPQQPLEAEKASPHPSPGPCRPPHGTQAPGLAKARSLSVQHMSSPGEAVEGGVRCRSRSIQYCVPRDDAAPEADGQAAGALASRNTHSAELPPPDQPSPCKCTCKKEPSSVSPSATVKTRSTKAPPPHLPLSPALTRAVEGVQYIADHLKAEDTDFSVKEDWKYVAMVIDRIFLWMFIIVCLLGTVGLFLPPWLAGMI
T5 sequence (P17787 26-502): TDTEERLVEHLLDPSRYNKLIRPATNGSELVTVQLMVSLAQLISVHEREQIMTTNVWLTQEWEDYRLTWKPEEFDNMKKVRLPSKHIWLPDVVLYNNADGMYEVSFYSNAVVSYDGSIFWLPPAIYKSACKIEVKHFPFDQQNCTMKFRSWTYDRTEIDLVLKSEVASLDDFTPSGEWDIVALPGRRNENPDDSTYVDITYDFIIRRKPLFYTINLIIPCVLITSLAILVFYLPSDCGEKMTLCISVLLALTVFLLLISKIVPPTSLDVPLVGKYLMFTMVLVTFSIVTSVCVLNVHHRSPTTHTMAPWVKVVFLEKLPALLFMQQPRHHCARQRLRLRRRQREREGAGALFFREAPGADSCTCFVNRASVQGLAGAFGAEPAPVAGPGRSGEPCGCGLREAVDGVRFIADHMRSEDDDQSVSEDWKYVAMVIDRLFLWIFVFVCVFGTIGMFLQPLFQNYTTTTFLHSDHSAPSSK
Description: as §8, §2, §3, §7

α1β1εδ nAChR = target: T6, α1β1εδ nAChR (Mus musculus, UniProt P02716+P04756+P09690+P20782); assay: Inhibition of control ACh responses by co-application, muscle α1β1εδ nAChR in oocytes; details: 3 μM compound co-applied with ACh; fraction of control ACh response
T6 construct: expressed in transfected cells; host or cells: Xenopus laevis oocytes
T6 sequence (P04756 21-457): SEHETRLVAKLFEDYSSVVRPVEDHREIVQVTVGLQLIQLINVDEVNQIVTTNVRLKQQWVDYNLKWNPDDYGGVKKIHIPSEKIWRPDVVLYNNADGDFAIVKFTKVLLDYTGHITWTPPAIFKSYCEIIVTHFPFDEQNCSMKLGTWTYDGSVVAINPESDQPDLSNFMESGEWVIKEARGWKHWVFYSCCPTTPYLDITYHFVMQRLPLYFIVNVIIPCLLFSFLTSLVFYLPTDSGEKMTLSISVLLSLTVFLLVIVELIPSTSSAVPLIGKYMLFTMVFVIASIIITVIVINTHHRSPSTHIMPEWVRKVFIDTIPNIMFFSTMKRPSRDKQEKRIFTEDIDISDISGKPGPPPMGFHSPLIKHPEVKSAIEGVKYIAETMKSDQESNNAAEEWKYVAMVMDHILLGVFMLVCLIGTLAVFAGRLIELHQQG
T6 sequence (P09690 24-501): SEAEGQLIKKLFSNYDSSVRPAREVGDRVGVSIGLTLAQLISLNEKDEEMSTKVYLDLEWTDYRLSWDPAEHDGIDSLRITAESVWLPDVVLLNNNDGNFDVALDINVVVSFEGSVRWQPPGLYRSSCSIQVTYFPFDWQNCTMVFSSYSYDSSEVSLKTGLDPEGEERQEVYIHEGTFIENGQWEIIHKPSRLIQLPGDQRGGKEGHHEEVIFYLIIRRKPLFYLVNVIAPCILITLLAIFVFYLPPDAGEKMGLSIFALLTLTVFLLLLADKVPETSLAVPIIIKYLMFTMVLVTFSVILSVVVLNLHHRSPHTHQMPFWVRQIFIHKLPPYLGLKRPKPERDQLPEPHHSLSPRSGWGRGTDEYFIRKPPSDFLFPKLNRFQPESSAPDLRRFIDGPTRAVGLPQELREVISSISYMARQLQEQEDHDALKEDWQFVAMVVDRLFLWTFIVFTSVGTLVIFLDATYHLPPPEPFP
T6 sequence (P20782 21-493): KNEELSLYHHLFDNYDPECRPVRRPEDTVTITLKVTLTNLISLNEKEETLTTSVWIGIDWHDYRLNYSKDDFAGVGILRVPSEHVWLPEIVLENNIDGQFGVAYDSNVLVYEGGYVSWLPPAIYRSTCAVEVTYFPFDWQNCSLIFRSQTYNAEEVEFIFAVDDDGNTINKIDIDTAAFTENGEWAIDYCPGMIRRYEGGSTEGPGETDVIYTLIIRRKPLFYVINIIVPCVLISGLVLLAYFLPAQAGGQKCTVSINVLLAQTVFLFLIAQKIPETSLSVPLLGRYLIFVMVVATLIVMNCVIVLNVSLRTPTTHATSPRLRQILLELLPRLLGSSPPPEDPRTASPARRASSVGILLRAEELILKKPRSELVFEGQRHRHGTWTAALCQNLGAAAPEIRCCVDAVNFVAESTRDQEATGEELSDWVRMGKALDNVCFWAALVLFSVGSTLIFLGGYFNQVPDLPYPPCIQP
T6 sequence (P02716 25-520): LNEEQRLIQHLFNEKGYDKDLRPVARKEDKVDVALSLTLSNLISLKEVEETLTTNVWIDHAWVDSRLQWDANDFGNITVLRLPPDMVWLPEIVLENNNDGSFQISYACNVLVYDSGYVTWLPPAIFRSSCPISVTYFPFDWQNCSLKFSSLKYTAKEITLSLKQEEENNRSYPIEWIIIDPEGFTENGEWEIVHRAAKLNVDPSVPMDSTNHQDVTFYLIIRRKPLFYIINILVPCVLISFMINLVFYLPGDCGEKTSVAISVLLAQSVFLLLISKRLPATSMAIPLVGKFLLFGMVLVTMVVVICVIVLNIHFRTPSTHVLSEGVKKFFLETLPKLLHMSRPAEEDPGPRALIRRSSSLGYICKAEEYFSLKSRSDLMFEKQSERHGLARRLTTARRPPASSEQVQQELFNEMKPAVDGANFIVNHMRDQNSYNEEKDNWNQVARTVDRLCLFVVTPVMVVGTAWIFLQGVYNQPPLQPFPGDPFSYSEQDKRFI
Description: as §8, §2, §3, §7

[3] = 3e vs larger ammonium analogs, 3h relative to 3g

SMILES	EC50 (α9 nAChR)	α9 Imax (α9 nAChR)	Agonist character / efficacy at α9α10 (α9α10 nAChR)	EC50 (α9α10 nAChR)	Fold better potency for α9α10 relative to α9 homomers (α9α10 nAChR; ratio of EC50 values)	α9α10 Imax (α9α10 nAChR)	Agonist character / efficacy at α7 (α7 nAChR [1])	EC50 (α7 nAChR [1])	α7 Imax (α7 nAChR [1])	Response co-applied with PNU-120596, normalized to ACh co-applied with PNU-120596 (α7 nAChR [2])	Effect of co-application on the control ACh responses, α3β4 (α3β4 nAChR)	Effect of co-application on the control ACh responses, α4β2 (α4β2 nAChR)	Effect of co-application on the control ACh responses, α1β1εδ (α1β1εδ nAChR)	Agonist character / efficacy at α9 (α9 nAChR)	Fold loss of potency at α9 relative to comparator compound (α9 nAChR; [3])	Fold loss of potency at α9α10 relative to comparator compound (α9α10 nAChR; [3])
CC[N+]1(CC)CCN(c2ccc(C(=O)Nc3ccccn3)cc2)CC1.[I-] [Compound 3c, 1,1-diethyl-4-(4-(pyridin-2-ylcarbamoyl)phenyl)piperazin-1-ium iodide]	18 ± 36 µM	1.18 ± 0.39	efficacious agonist	1180 ± 260 nM	10 fold	0.94 ± 0.04	partial agonists	26 ± 20 µM	0.46 ± 0.08 and 0.46	0.12	0.789 ± 0.057	0.697 ± 0.027	0.506 ± 0.082			
CC[N+]1(CC)CCN(c2ccc(C(=O)Nc3cccc(C)c3)cc2)CC1.[I-] [Compound 3d, 1,1-diethyl-4-(4-(m-tolylcarbamoyl)phenyl)piperazin-1-ium iodide]	1.28 ± 0.62 µM	1.25 ± 0.14		610 ± 80 nM		1.12 ± 0.03	partial agonists	1.3 ± 0.1 µM	0.60 ± 0.02 and 0.6	0.17	1.039 ± 0.015	0.807 ± 0.048	0.555 ± 0.060			
Cc1cccc(NC(=O)c2ccc(N3CC[N+](C)(C)CC3)cc2)n1.[I-] [Compound 3e, 1,1-dimethyl-4-(4-((6-methylpyridin-2-yl)carbamoyl)phenyl)piperazin-1-ium iodide]	7 ± 6 µM	0.51 ± 0.07	fully efficacious agonist	4200 ± 1500 nM		0.89 ± 0.07		4.3 ± 1 µM	0.57 ± 0.03 and 0.57	0.16	0.838 ± 0.037	0.912 ± 0.038	0.709 ± 0.091	partial agonist	about 10 fold	about 10 fold
CC[N+]1(C)CCN(c2ccc(C(=O)Nc3cccc(C)n3)cc2)CC1.[I-] [Compound 3f, 1-ethyl-1-methyl-4-(4-((6-methylpyridin-2-yl)carbamoyl)phenyl)piperazin-1-ium iodide]		1.19±0.03				0.92±0.04		4.3 to 6.4 µM	0.40 ± 0.02 and 0.4	0.13	0.849 ± 0.018	0.858 ± 0.045	0.413 ± 0.070	full agonist		
